Where “and” joins values, the source holds several entries; their conditions need not be identical. Identical values can stand only once. Toxic doses and inconclusive results are not listed.
Tested on: CD2F1 mice, L1210 leukemia ip, survival T/C
Test: NCI In Vivo Anticancer Drug Screen. Data for tumor model L1210 Leukemia (intraperitoneal) in CD2F1 (CDF1) mice
Conditions: higher = longer survival
How it was run: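 Implant tumor; dose compound or vehicle; measure endpoint in both groups; report treated divided by control.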

[1] = endpoint: mean survival time, dose: 25.0 mg/kg/injection, schedule: Q01DX009 (ip), vehicle: saline with Tween-80
[2] = endpoint: mean survival time, dose: 50.0 mg/kg/injection, schedule: Q01DX009 (ip), vehicle: saline with Tween-80
[3] = endpoint: mean survival time, dose: 100.0 mg/kg/injection, schedule: Q01DX009 (ip), vehicle: saline with Tween-80
[4] = endpoint: mean survival time, dose: 100.0 mg/kg/injection, schedule: Q01DX001 (ip), vehicle: saline with Tween-80
[5] = endpoint: mean survival time, dose: 200.0 mg/kg/injection, schedule: Q01DX001 (ip), vehicle: saline with Tween-80
[6] = endpoint: mean survival time, dose: 12.5 mg/kg/injection, schedule: Q01DX009 (ip), vehicle: saline with Tween-80
[7] = endpoint: mean survival time, dose: 100.0 mg/kg/injection, schedule: Q04DX003 (ip), vehicle: saline with Tween-80
[8] = endpoint: mean survival time, dose: 400.0 mg/kg/injection, schedule: Q04DX003 (ip), vehicle: saline with Tween-80
[9] = endpoint: mean survival time, dose: 200.0 mg/kg/injection, schedule: Q01DX009 (ip), vehicle: saline with Tween-80
[10] = endpoint: mean survival time, dose: 400.0 mg/kg/injection, schedule: Q01DX009 (ip), vehicle: saline with Tween-80
[11] = endpoint: mean survival time, dose: 200.0 mg/kg/injection, schedule: Q04DX003 (ip), vehicle: saline with Tween-80

`NC(=O)c1ccccc1CO` was tested, and the T/C (endpoint: mean survival time, dose: 100.0 mg/kg/injection, schedule: Q04DX002 (ip), vehicle: saline with Tween-80) was 102 % of control, the T/C (endpoint: mean survival time, dose: 200.0 mg/kg/injection, schedule: Q04DX002 (ip), vehicle: saline with Tween-80) was 98 % of control and the T/C (endpoint: mean survival time, dose: 400.0 mg/kg/injection, schedule: Q04DX002 (ip), vehicle: saline with Tween-80) was 98 % of control.
With `O=c1[nH]c(=O)n2c3c1nnn3CC1OC2C(O)C1O` (centres undefined) the T/C (endpoint: mean survival time, dose: 12.5 mg/kg/injection, schedule: Q01DX005 (ip), vehicle: water) was 93 % of control, the T/C (endpoint: mean survival time, dose: 25.0 mg/kg/injection, schedule: Q01DX005 (ip), vehicle: water) was 93 % of control and the T/C (endpoint: mean survival time, dose: 50.0 mg/kg/injection, schedule: Q01DX005 (ip), vehicle: water) was 95 % of control. For the same compound, the T/C (endpoint: mean survival time, dose: 100.0 mg/kg/injection, schedule: Q01DX005 (ip), vehicle: water) was 89 % of control and the T/C (endpoint: mean survival time, dose: 200.0 mg/kg/injection, schedule: Q01DX005 (ip), vehicle: water) was 95 % of control.
With `O=C1OC(=O)N2N=CC=CC12` (centres undefined) the T/C (endpoint: mean survival time, dose: 100.0 mg/kg/injection, schedule: Q01DX001 (ip), vehicle: saline sonified) was 96 % of control, the T/C (endpoint: mean survival time, dose: 200.0 mg/kg/injection, schedule: Q01DX001 (ip), vehicle: saline sonified) was 98 % of control and the T/C (endpoint: mean survival time, dose: 400.0 mg/kg/injection, schedule: Q01DX001 (ip), vehicle: saline sonified) was 94 % of control.
For `CCCCCCCCC[n+]1cccc(C(N)=O)c1`, the T/C [1] was 97 % of control, the T/C [2] was 101 % of control and the T/C [3] was 95 % of control.
For `CCOC(=O)C(CC(C)C)NC(=O)C(N)Cc1ccc(N(CCCl)CCCl)cc1` (centres undefined), the T/C (endpoint: mean survival time, dose: 1.25 mg/kg/injection, schedule: Q01DX009 (ip), vehicle: water) was 106 % of control, the T/C (endpoint: mean survival time, dose: 2.5 mg/kg/injection, schedule: Q01DX009 (ip), vehicle: water) was 115 % of control and 119 % of control and the T/C (endpoint: mean survival time, dose: 10.0 mg/kg/injection, schedule: Q01DX009 (ip), vehicle: water) was 169 % of control. The T/C (endpoint: mean survival time, dose: 20.0 mg/kg/injection, schedule: Q01DX009 (ip), vehicle: water) was 114 % of control, the T/C (endpoint: median survival time, dose: 3.6 mg/kg/injection, schedule: Q01DX009 (ip), vehicle: water) was 118 % of control and the T/C (endpoint: median survival time, dose: 16.67 mg/kg/injection, schedule: Q01DX009 (ip), vehicle: water) was 175 % of control. The T/C (endpoint: median survival time, dose: 27.78 mg/kg/injection, schedule: Q01DX009 (ip), vehicle: water) was 118 % of control.
For `COC1OC(OC2OC=C3C(=O)OC4CC(C)C2C34)C(O)C(O)C1O` (centres undefined), the T/C (endpoint: median survival time, dose: 4.0 mg/kg/injection, schedule: Q01DX005 (ip), vehicle: Klucel (hydroxypropylcellulose) (HPC)) was 104 % of control, the T/C (endpoint: median survival time, dose: 8.0 mg/kg/injection, schedule: Q01DX005 (ip), vehicle: Klucel (hydroxypropylcellulose) (HPC)) was 101 % of control and the T/C (endpoint: median survival time, dose: 16.0 mg/kg/injection, schedule: Q01DX005 (ip), vehicle: Klucel (hydroxypropylcellulose) (HPC)) was 104 % of control. The T/C (endpoint: median survival time, dose: 32.0 mg/kg/injection, schedule: Q01DX005 (ip), vehicle: Klucel (hydroxypropylcellulose) (HPC)) was 109 % of control.
With `CCOC12c3c4cccc3Oc3cccc(c31)S(=O)(=O)c1cccc(c12)O4` the T/C [4] was 89 % of control and the T/C [5] was 89 % of control.
For `Cc1nc(C(Cl)C2OC(CO)C(O)C2O)cc(=O)[nH]1` (centres undefined), the T/C (endpoint: median survival time, dose: 18.25 mg/kg/injection, schedule: Q01DX005 (ip), vehicle: saline) was 118 % of control, the T/C (endpoint: median survival time, dose: 36.5 mg/kg/injection, schedule: Q01DX005 (ip), vehicle: saline) was 100 % of control and the T/C (endpoint: median survival time, dose: 73.0 mg/kg/injection, schedule: Q01DX005 (ip), vehicle: saline) was 102 % of control. The T/C (endpoint: median survival time, dose: 146.0 mg/kg/injection, schedule: Q01DX005 (ip), vehicle: saline) was 100 % of control.
`CN(C)CCCN1c2ccccc2C(C)(C)c2ccccc21` was tested, and the T/C [6] was 105 % of control, the T/C [1] was 103 % of control and the T/C [2] was 97 % of control. For the same compound, the T/C [7] was 86 % of control and the T/C [8] was 114 % of control.
In the case of `Clc1ccc(NC2=NCCO2)cc1`, the T/C (endpoint: mean survival time, dose: 100.0 mg/kg/injection, schedule: Q04DX003 (ip), vehicle: Klucel (hydroxypropylcellulose) (HPC)) is reported as 94 % of control.
`O=C(N/N=C\c1ccc(F)cc1)N/N=C/c1ccc(F)cc1` was tested, and the T/C [6] was 93 % of control, the T/C [1] was 91 % of control and the T/C [2] was 91 % of control. For the same compound, the T/C [9] was 90 % of control and the T/C [10] was 90 % of control.
With `CC(C(=O)O)C1CCC2C3CC=C4CC(O)CCC4(C)C3CCC12C` (centres undefined) the T/C [7] was 99 % of control, the T/C [11] was 100 % of control and the T/C [8] was 100 % of control.
In the case of `O=C1C2C(C(=O)N1c1ccc(F)c([N+](=O)[O-])c1)C1(Cl)C(Cl)=C(Cl)C2(Cl)C1(Cl)Cl` (centres undefined), the T/C [2] is reported as 108 % of control, the T/C [3] is reported as 116 % of control and the T/C [9] is reported as 111 % of control.
`CCC(O)C[As](=O)(O)c1ccccc1OC` (centres undefined) was tested, and the T/C (endpoint: mean survival time, dose: 6.25 mg/kg/injection, schedule: Q04DX003 (ip), vehicle: saline with Tween-80) was 97 % of control, the T/C (endpoint: mean survival time, dose: 12.5 mg/kg/injection, schedule: Q04DX003 (ip), vehicle: saline with Tween-80) was 97 % of control and the T/C (endpoint: mean survival time, dose: 25.0 mg/kg/injection, schedule: Q04DX003 (ip), vehicle: saline with Tween-80) was 103 % of control.
For `CC(=O)OC1(C)CC(C)C(=O)C(C(O)CC2CC(=O)NC(=O)C2)C1` (centres undefined), the T/C (endpoint: mean survival time, dose: 0.03 mg/kg/injection, schedule: Q01DX009 (ip), vehicle: saline) was 103 % of control, the T/C (endpoint: mean survival time, dose: 0.04 mg/kg/injection, schedule: Q01DX009 (ip), vehicle: saline) was 94 % of control and the T/C (endpoint: mean survival time, dose: 0.06 mg/kg/injection, schedule: Q01DX009 (ip), vehicle: saline) was 105 % of control and 107 % of control. For the same compound, the T/C (endpoint: mean survival time, dose: 0.13 mg/kg/injection, schedule: Q01DX009 (ip), vehicle: saline) was 114 % of control.
In the case of `COc1ccc(/C=C(/C#N)C(N)=O)cc1Br`, the T/C (endpoint: mean survival time, dose: 50.0 mg/kg/injection, schedule: Q01DX009 (ip), vehicle: acetone) is reported as 96 % of control, the T/C (endpoint: mean survival time, dose: 100.0 mg/kg/injection, schedule: Q01DX009 (ip), vehicle: acetone) is reported as 98 % of control and the T/C (endpoint: mean survival time, dose: 200.0 mg/kg/injection, schedule: Q01DX009 (ip), vehicle: acetone) is reported as 93 % of control.
In the case of `NC(CCl)=NCc1ccccn1`, the T/C (endpoint: mean survival time, dose: 25.0 mg/kg/injection, schedule: Q04DX002 (ip), vehicle: saline) is reported as 108 % of control, the T/C (endpoint: mean survival time, dose: 50.0 mg/kg/injection, schedule: Q04DX002 (ip), vehicle: saline) is reported as 97 % of control and the T/C (endpoint: mean survival time, dose: 100.0 mg/kg/injection, schedule: Q04DX002 (ip), vehicle: saline) is reported as 101 % of control.
With `CCN(CC)c1ccc(N)cc1` the T/C (endpoint: mean survival time, dose: 5.0 mg/kg/injection, schedule: Q01DX009 (ip), vehicle: saline) was 96 % of control, the T/C (endpoint: mean survival time, dose: 5.0 mg/kg/injection, schedule: Q04DX003 (ip), vehicle: saline) was 96 % of control and the T/C (endpoint: mean survival time, dose: 10.0 mg/kg/injection, schedule: Q01DX009 (ip), vehicle: saline) was 96 % of control. The T/C (endpoint: mean survival time, dose: 10.0 mg/kg/injection, schedule: Q04DX003 (ip), vehicle: saline) was 97 % of control, the T/C (endpoint: mean survival time, dose: 20.0 mg/kg/injection, schedule: Q01DX009 (ip), vehicle: saline) was 100 % of control and the T/C (endpoint: mean survival time, dose: 20.0 mg/kg/injection, schedule: Q04DX003 (ip), vehicle: saline) was 94 % of control.
With `CCOC(=O)C(C#N)N=Nc1ccccc1` (centres undefined) the T/C [3] was 95 % of control, the T/C [9] was 95 % of control and the T/C [10] was 95 % of control.
For `CCOC(=O)C(C)(C)Oc1ccc(Cl)cc1`, the T/C [6] was 100 % of control and 105 % of control, the T/C [1] was 97 % of control and 98 % of control and the T/C [2] was 103 % of control and 104 % of control. The T/C [4] was 94 % of control, the T/C [3] was 100 % of control and 101 % of control and 103 % of control and the T/C [5] was 91 % of control. For the same compound, the T/C [9] was 100 % of control and 101 % of control and 102 % of control, the T/C (endpoint: mean survival time, dose: 400.0 mg/kg/injection, schedule: Q01DX001 (ip), vehicle: saline with Tween-80) was 94 % of control and the T/C [10] was 100 % of control and 104 % of control and 109 % of control.
For `CS(=O)(=O)OC1CCS(=O)(=O)c2ccccc21` (centres undefined), the T/C (endpoint: mean survival time, dose: 100.0 mg/kg/injection, schedule: Q01DX001 (ip), vehicle: carboxymethylcellulose (CMC)) was 97 % of control, the T/C (endpoint: mean survival time, dose: 200.0 mg/kg/injection, schedule: Q01DX001 (ip), vehicle: carboxymethylcellulose (CMC)) was 97 % of control and the T/C (endpoint: mean survival time, dose: 400.0 mg/kg/injection, schedule: Q01DX001 (ip), vehicle: carboxymethylcellulose (CMC)) was 97 % of control.
With `Nc1ncc(C(=O)c2ccccc2)cc1[N+](=O)[O-]` the T/C [7] was 96 % of control and the T/C [11] was 96 % of control.
